{"source": "patent US12221426B2", "about": "“Inhibitory material against human body-derived nicotinamide adenine dinucleotide phosphate-dependent steroid dehydrogenase-like, and anticancer agent comprising same as effective ingredient or pharmaceutical composition comprising same as effective ingredient for treatment of hyperlipidemia” (SEOUL NATIONAL UNIVERSITY R&DB FOUNDATION, priority 2018, dated 2025)", "data": [{"target": "Human-derived nicotinamide adenine dinucleotide phosphate-dependent steroid dehydrogenase (NSDHL) (Homo sapiens (Human), UniProt Q15738)", "sequence (Q15738 whole entry)": "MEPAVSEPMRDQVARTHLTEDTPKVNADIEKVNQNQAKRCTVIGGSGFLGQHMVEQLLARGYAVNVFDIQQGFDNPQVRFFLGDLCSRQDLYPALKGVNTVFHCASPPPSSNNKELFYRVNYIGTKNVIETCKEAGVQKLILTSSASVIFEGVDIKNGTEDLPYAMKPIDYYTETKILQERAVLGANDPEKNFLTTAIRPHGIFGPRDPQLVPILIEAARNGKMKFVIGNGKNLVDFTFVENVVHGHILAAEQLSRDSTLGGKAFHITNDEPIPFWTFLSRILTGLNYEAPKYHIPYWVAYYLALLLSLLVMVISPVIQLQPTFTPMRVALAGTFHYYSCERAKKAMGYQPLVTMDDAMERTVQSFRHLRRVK", "experiment": "NSDHL inhibitory activity evaluation: decrease of NADH fluorescence amplification when inhibitor releases NADH from NSDHL", "assay_type": "binding", "details": "recombinant NSDHL (16 μM, 50 μl) + NADH (50 μM, 50 μl), room temperature 10 min, Ex 340 nm/Em 460 nm, 96-well plate", "method": "In order to evaluate the nicotinamide adenine dinucleotide phosphate-dependent steroid dehydrogenase (NSDHL) inhibitory activity of the compound provided in one aspect of the present invention, the following experiment was performed.\nHuman-derived nicotinamide adenine dinucleotide phosphate-dependent steroid dehydrogenase (NADP-dependent steroid dehydrogenase-like; NSDHL) was expressed in large quantities in E. coli. The NSDHL gene was inserted into pET21a plasmid, which was cloned into E. coli C41 (DE3). After culturing E. coli in Luria Broth medium at 37° C., IPTG was added thereto at the time when OD600 was about 0.7 to express NSDHL, followed by culture at 37° C. for 4 hours.\nThe cultured E. coli was centrifuged, and the cells were stored at −80° C. The cells were crushed by sonification, which was first purified using IMAC (Immobilized metallo-affinity chromatography), and then finally purified using SEC (Size exclusion chromatography). The composition of the buffer solution for storing NSDHL was as follows: 40 mM HEPES (pH 8.0), 150 mM NaCl, and 0.5 mM TCEP.\nWhen dehydrogenase binds to NADH, fluorescence intensity is amplified compared to NADH alone. In other words, if the dehydrogenase, NSDHL, is treated with an inhibitor in a state in which it is bound to NADH, the fluorescence intensity will be reduced because NADH is released. FIG. 1 is a graph showing the results of measuring the fluorescence intensity of NADH according to the concentration of NSDHL.\nIn addition, it was also confirmed in FIG. 2 that an experiment for inhibiting was possible using NAD+, which is an oxidized form of NADH, but is not measured in the fluorescence measurement range of NADH. FIG. 2 is a graph showing the results of an experiment for inhibiting NSDHL and NADH conjugate using NAD+.\nAn activity assay was performed using a 96-well plate, and an experiment was performed after adding an inhibitor to each well at the final concentrations of 200 μM≤1 μM. Particularly, 50 μl of 16 μM NSDHL, 50 mM HEPES, 20% glycerol were added to each well, and then 50 ul of 50 μM NADH was added to each well, followed by reaction at room temperature for 10 minutes. The fluorescence level of each well was measured using SpectraMax M5 (Molecular Devices) equipment (Ex: 340 nm, Em: 460 nm). The values were corrected by separately measuring the absorbance of the compound and the buffer solution, and the degree of inhibition of each compound against NSDHL was measured based on the NADH fluorescence at the same concentration without binding. IC50 (inhibitory concentration at 50%) was calculated using GraphPad Prism software.", "units": {"IC50": "µM"}, "values": [{"smiles": "O=C(O)CN1C(=O)/C(=C/c2cn(-c3ccc(F)cc3)nc2-c2cccc(Cl)c2)SC1=S", "note": "[Example 2, (Z)-2-(5-((3-(3-chlorophenyl)-1-(4-fluorophenyl)-1H-pyrazole-4-yl)methylene)-4-oxo-2-thioxothiazolidin-3-yl)acetic acid]", "IC50": 12.8}, {"smiles": "COc1cccc(OCc2ccccc2)c1/C=C1\\SC(=S)N(CC(=O)O)C1=O", "note": "[Example 3, (Z)-2-(5-(2-(benzyloxy)-6-methoxybenzylidene)-4-oxo-2-thioxothiazolidin-3-yl)acetic acid]", "IC50": 19.9}, {"smiles": "O=C(O)CN1C(=O)/C(=C/c2ccc(O)cc2OCc2ccccc2Br)SC1=S", "note": "[Example 4, (Z)-2-(5-(2-(2-bromobenzyloxy)-4-hydroxybenzylidene)-4-oxo-2-thioxothiazolidin-3-yl)acetic acid]", "IC50": 17.8}, {"smiles": "O=C(O)CN1C(=O)/C(=C/c2cc(-c3ccc(F)cc3)ccc2OCc2ccc(C(=O)O)cc2)SC1=S", "note": "[Example 1, (Z)-4-((3-((3-(carboxymethyl)-4-oxo-2-thioxothiazolidin-5-ylidene)methyl)-4′-fluorobiphenyl-4-yloxy)methyl)benzoic acid]", "IC50": 10.4}, {"smiles": "O=C(O)CN1C(=O)/C(=C/c2cc(Br)ccc2OCc2ccccc2I)SC1=S", "note": "[Example 5, (Z)-2-(5-(5-bromo-2-(2-iodobenzyloxy)benzylidene)-4-oxo-2-thioxothiazolidin-3-yl)acetic acid]", "IC50": 27.1}]}]}
